Test results reported in patent US12486241B2, “Cystine diamide analogs for cystinuria” (Rutgers, The State University of New Jersey, priority 2019, dated 2025).
Counter-ions that a name gives are not always drawn.

Tests used:
[1] = L-cystine crystallization inhibition assay (metastable supersaturated L-cystine solution; L-cystine concentration by fluorescence or cyanide-nitroprusside colorimetric assay); conditions: for Ratio (improvement in potency over the control): footnote names L-cystine dimethylester (CDME) as control, LH708 = 1.00; for EC50: test compound in L-cystine supersaturated solution (~3 mM), 25° C. for 72 h, read-out: EC50 (Aqueous Solubility of L-Cystine)
Procedure: Example 21 Preparation of the Metastable Supersaturated Solution of L-Cystine and the Cystallizaiton Inhibition Assay
For the preparation of L-cystine supersaturated solution 70 mg of L-cystine was dissolved in 100 mL of Millipore water (˜3 mM) under reflux at 120° C. for 30 min until the L-cystine was completely dissolved. The supersaturated solution was then allowed to cool slowly with stirring until the oil bath temperature reached 40° C. take about 70 min depending on the lab atmosphere. To determine the L-cystine concentration all test compounds were dissolved in water to form 10 mM stock solution. Five uL of each solution was added to 495 uL L-cystine supersaturated solution. The mixtures were allowed to stand at 25° C. for 72 h. At the end of incubation, the mixtures were centrifuged at 13,000 rpm for 5 min and the supernatants were diluted 10-fold for concentration measurement. To construct the standard curves L-Cystine (2.1 mg) was dissolved in 0.1 M Na2CO3 solution (9 mL) to form a 1 mM solution as a stock solution. Then, 50 uL L-cystine stock solution was diluted to 0.6 mM with 0.1 M Na2CO3 ([…]) solution and to 0.4, 0.2, 0.1, 0.05 mM solution using Millipore water 75, 200, 450 and 950 uL, respectively.
Fluorescence Assay for the Determination of L-Cystine Concentration
10 μL of each L-cystine solutions or test compound diluted mixtures, 100 μL of DTT solution (12.5 mM) in 0.1 M dibasic sodium phosphate solution (1:9), were mixed at r.t. for 10 min, before the addition of 10 μL of iodoacetic acid (100 mM) and continued incubation at r.t. for an additional 15 min. This was then followed by the addition of 20 μL of OPA (100 mM in methanol)/NBC (100 mM in methanol) (1:1). The derivatization was allowed to proceed for 3 min before 3×40 μL of the mixture were placed in a 384-well plate and read at Ex 355 nm/Em 460 nm. The standard curve was repeated for each set of experiments and used to calculate the concentration of L-cystine in each sample.
Cyanide-Nitroprusside Colorimetric Assay for the Determination of L-Cystine Concentration
3×40 μL of each L-cystine solutions or test compound diluted mixtures were placed in a 96-well plate (black, clear bottom). 80 μL of aqueous solution of potassium cyanide (30% w/v) in PBS (pH=7.4) (1:7) was added to each well then the plate was left to shake at 550 rpm for 25 min. 10 μL of aqueous solution of sodium nitroprusside (20% w/v) was added to each well using automated dispenser then the plate was centrifuged immediately at 1500 rpm for 20 sec. Then the UV absorbance was measured at 530 nm using Victor 3 V plate reader. The standard curve was repeated for each plate and used to calculate the concentration of L-cystine in each sample.

[2] = in water; cited from earlier work
rats = conditions: cited from earlier work
cell culture = cell culture experiments; cited from earlier work

Row | SMILES | Ratio (improvement in potency over the control) [1] | EC50 [1] [nM] | Concentration at which crystallization of L-cystine is almost completely inhibited [2] | Dosage demonstrating adverse effects (rats) | Concentration causing loss of cell viability (cell culture)
1 | N[C@@H](CSSC[C@H](N)C(=O)NCCCN1CCOCC1)C(=O)NCCCN1CCOCC1 [LH1741, L-Cystine bis (1′-morpholine-3′-aminopropaneamide) tetrahydrochloride] | 0.27 | 160 ± 10.6 | – | – | –
2 | N[C@@H](CSSC[C@H](N)C(=O)NCCCN1CCCC1)C(=O)NCCCN1CCCC1 [LH1740, L-Cystine bis(1′-pyrrolidine-3′-aminopropaneamide) tetrahydrochloride] | 0.26 | 163 ± 12.5 | – | – | –
3 | N[C@@H](CSSC[C@H](N)C(=O)NCCN1CCOCC1)C(=O)NCCN1CCOCC1 [LH1738, L-Cystine bis(N′-morpholinoethyleneamide) tetrahydrochloride] | 0.54 | 79.7 ± 7.7 | – | – | –
4 | CC(C)(C)N1CCN(C(=O)[C@@H](N)CSSC[C@H](N)C(=O)N2CCN(C(C)(C)C)CC2)CC1 [LH1729, L-Cystine bis(N′-tert-butylpiperazide) tetrahydrochloride] | 1.34 | 32 ± 2.5 | – | – | –
5 | N[C@@H](CSSC[C@H](N)C(=O)NCCN1CCCC1)C(=O)NCCN1CCCC1 [LH1735, L-Cystine bis(N′-pyrrolidinoethyleneamide) tetrahydrochloride] | 0.37 | 116 ± 6.1 | – | – | –
6 | N[C@@H](CSSC[C@H](N)C(=O)N1CCN(C2CC2)CC1)C(=O)N1CCN(C2CC2)CC1 [LH1730, L-Cystine bis(N′-cyclopropylpiperazide) tetrahydrochloride] | 0.62 | 68.8 ± 4.1 | – | – | –
7 | CC1(C)CNCCN1C(=O)[C@@H](N)CSSC[C@H](N)C(=O)N1CCNCC1(C)C [LH1733, L-Cystine bis(2′,2′-dimethylpiperazide) tetrahydrochloride] | 0.40 | 108 ± 3.1 | – | – | –
8 | N[C@@H](CSSC[C@H](N)C(=O)N1CCC(N2CCCC2)CC1)C(=O)N1CCC(N2CCCC2)CC1 [LH1752, L-Cystine bis(4′-(1″-Pyrrolidinyl)piperidine) tetrahydrochloride] | 1.17 | 36.5 ± 1.6 | – | – | –
9 | COC(=O)[C@@H](N)CSSC[C@H](N)C(=O)OC [CDME, L-cystine dimethylester] | – | – | above 2 mg/L | approximately 500 mg/kg per day | approximately 1 mM
10 | CN(C)C1CCN(C(=O)[C@@H](N)CSSC[C@H](N)C(=O)N2CCC(N(C)C)CC2)CC1 [LH1751, L-Cystine bis(4′-(dimethylamino)-piperidineamide) tetrahydrochloride] | 0.84 | 51.2 ± 3.7 | – | – | –
11 | CN1CCN(C(=O)[C@@H](N)CSSC[C@H](N)C(=O)N2CCN(C)CC2)CC1 [LH708, reference compound] | 1.00 | 42.8 ± 0.7 | – | – | –
12 | N[C@@H](CSSC[C@H](N)C(=O)N1CCN(c2ccccc2)CC1)C(=O)N1CCN(c2ccccc2)CC1 [LH1732] | 0.09 | 500 ± 26.5 | – | – | –
13 | N[C@@H](CSSC[C@H](N)C(=O)NCCN1CCCCC1)C(=O)NCCN1CCCCC1 [LH1737, L-Cystine bis(N′-piperidinoethyleneamide) tetrahydrochloride] | 0.30 | 143 ± 9.8 | – | – | –
14 | CN(C)CCNC(=O)[C@@H](N)CSSC[C@H](N)C(=O)NCCN(C)C [LH1734, L-Cystine bis (N′,N′-dimethylethyleneamide) tetrahydrochloride] | 0.26 | 163 ± 10.8 | – | – | –
15 | CN(C)CCCNC(=O)[C@@H](N)CSSC[C@H](N)C(=O)NCCCN(C)C [LH1739, L-Cystine bis (N′,N′-dimethyl-1′,3′-diaminopropaneamide) tetrahydrochloride] | 0.37 | 114 ± 9.4 | – | – | –
16 | N[C@@H](CSSC[C@H](N)C(=O)N1CCNCC1)C(=O)N1CCNCC1 [LH1726, L-Cystine bispiperazide tetrahydrochloride] | 0.81 | 52.6 ± 0.8 | – | – | –
17 | N[C@@H](CSSC[C@H](N)C(=O)N1CCN(C2CCCC2)CC1)C(=O)N1CCN(C2CCCC2)CC1 [LH1731, L-Cystine bis(N′-cyclopentylpiperazide) tetrahydrochloride] | 1.08 | 39.5 ± 1.3 | – | – | –
18 | N[C@@H](CSSC[C@H](N)C(=O)N1CCCC12CCNCC2)C(=O)N1CCCC12CCNCC2 [LH1754, L-Cystine bis(1,8-Diazaspiro[4.5]decan-1-yl) tetrahydrochloride] | 0.36 | 120 ± 13 | – | – | –
19 | N[C@@H](CSSC[C@H](N)C(=O)N1CCC2(CCCN2)CC1)C(=O)N1CCC2(CCCN2)CC1 [LH1753, L-Cystine bis(1,8-Diazaspiro[4.5]decan-8-yl) tetrahydrochloride] | 1.70 | 25.1 ± 2.4 | – | – | –
